Source: patent US20030187056A1, “Live cell procedures to identify to identify compounds modulating intracellular distribution of phosphodiesterase( pde) enzymes” (priority 2000, published 2003)
pIC50: −log10 of the molar value. Entries after “also recorded” stand apart in the source; their conditions may differ. Like-named read-outs stand apart in the source and are kept apart here.

What was measured:
HSPDE4A1-EGFP [1] = target: T1, HSPDE4A1-EGFP (Homo sapiens, UniProt P27815); assay: Spot dispersal in CHO cells transfected with HSPDE4A1-EGFP; format: cell-based; conditions: for Removal of PDE4A1 spots: yes/no; for dispersal of PDE4A1 spots (in words): Rolipram 2 micromolar 2 hours, others over the ranges tested
T1 construct: the ca. 1.95 kb coding region of HSPDE4A1 (GenBank Acc.no. U97584) is amplified; expressed in transfected cells
T1 sequence (P27815 1-647 isoform P27815-4): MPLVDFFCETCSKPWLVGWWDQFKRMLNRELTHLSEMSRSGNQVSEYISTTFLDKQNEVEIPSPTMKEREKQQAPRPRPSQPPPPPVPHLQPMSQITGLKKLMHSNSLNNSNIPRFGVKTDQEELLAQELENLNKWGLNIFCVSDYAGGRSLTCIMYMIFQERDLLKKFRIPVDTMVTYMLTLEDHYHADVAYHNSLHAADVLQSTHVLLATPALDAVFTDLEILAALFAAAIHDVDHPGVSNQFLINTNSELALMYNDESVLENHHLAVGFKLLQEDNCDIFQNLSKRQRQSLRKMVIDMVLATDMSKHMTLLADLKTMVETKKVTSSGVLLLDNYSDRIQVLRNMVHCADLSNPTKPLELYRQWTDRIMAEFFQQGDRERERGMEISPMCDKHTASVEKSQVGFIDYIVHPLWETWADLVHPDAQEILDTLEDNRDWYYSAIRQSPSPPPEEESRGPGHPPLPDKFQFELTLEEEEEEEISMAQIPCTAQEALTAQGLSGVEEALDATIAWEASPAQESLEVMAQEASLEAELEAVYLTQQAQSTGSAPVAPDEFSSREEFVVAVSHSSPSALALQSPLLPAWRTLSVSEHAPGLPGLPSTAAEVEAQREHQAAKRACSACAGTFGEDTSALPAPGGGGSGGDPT
Protocol: (§1) […] The cells are then fixed with 4% formalin buffer (pH7) for 1 hour, washed with PBS and stained with 1 μM Hoechst 33258 in PBS for 10 minutes at 25° C., then washed twice in PBS. Automated images are collected and analysed for the number of spots per cell as described in Example 2.
as §1

PDE4 [2] = conditions: cited from earlier work; for IC50: Data from Souness and Rao, 1997, read-out: PDE4 inhibition (IC50: μM); for pIC50: literature values quoted in Example 5 (Saldou 1998; Ahluwalia 1982; Rubin 1991), read-out: IC50 against PDE4; for Inhibition of PDE4 catalytic activity: yes/no
HSPDE4A1-EGFP [3] = target: T1, HSPDE4A1-EGFP; assay: Competitive assay: reversal of Rolipram-induced spot dispersal, HSPDE4A1-EGFP CHO cells; format: cell-based; conditions: yes/no
HSPDE4A4-EGFP [4] = target: T2, HSPDE4A4-EGFP (Homo sapiens, UniProt P27815); assay: Spot formation in CHO cells transfected with HSPDE4A4-EGFP; format: cell-based; conditions: for cells with spots: 10 μM denbufylline, 24.5 hours; for Formation of PDE4A4 spots: yes/no; for formation of spots, compound alone (in words): observed up to 24 hours
T2 construct: expressed in transfected cells
T2 sequence (P27815 whole entry): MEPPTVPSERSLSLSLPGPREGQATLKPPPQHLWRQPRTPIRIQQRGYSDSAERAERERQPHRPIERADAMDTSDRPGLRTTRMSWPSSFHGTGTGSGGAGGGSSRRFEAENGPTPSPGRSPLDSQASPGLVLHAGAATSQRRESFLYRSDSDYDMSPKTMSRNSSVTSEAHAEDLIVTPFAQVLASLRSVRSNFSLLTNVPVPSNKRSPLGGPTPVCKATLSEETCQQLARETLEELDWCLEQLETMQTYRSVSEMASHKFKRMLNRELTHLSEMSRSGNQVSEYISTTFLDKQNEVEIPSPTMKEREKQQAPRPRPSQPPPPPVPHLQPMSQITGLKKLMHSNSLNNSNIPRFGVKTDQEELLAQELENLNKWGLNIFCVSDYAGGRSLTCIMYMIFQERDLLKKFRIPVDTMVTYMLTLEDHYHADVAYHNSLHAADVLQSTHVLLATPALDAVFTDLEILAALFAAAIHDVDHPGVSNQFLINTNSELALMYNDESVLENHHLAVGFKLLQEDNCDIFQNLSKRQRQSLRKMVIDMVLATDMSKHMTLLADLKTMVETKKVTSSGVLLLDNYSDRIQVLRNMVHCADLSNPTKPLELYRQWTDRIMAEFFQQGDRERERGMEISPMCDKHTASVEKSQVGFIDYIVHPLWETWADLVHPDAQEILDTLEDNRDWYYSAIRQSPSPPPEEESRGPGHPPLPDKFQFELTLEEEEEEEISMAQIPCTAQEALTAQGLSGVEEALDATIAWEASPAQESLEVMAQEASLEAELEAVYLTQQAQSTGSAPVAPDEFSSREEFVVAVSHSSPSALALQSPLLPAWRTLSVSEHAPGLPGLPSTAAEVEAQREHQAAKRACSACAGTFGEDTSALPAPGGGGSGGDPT
Protocol: Chinese hamster ovary cells (CHO), are transfected with the plasmids described in Example 1 above using the transfection agent FuGENE™ 6 (Boehringer Mannheim Corp, USA) according to the method recommended by the suppliers. Stable transfectants are selected using 1 mg/ml G418 sulphate (Calbiochem) in the growth medium (HAM's F12 nutrient mix with Glutamax-1, 10% foetal bovine serum (FBS), 100 μg penicillin-streptomycin mixture ml^−1 (GibcoBRL, supplied by Life Technologies, Denmark). Cell are cultured at 37° C. in 100% humidity and conditions of normal atmospheric gases supplemented with 5% CO2.
For fluorescence microscopy, cells are allowed to adhere to Lab-Tek chambered coverglasses (Nalge Nunc International, Naperville USA) for at least 24 hours and are then cultured to about 80% confluence. Cells can also be grown in plastic 96-well plates (Polyfiltronics Packard 96-View Plate or Costar Black Plate, clear bottom; both types tissue culture treated) for imaging purposes. Prior to experiments, the cells are cultured over night without G418 sulphate in HAM F-12 medium with glutamax, 100 μg penicillin-streptomycin mixture ml^−1 and 10% FBS. This medium has low autofluorescence enabling fluorescence microscopy of cells straight from the incubator. For certain tests requiring medium of defined composition, particularly with regard to the presence of specific cell growth factors, the HAM's culture medium is replaced prior to imaging with a buffered saline solution (KRW buffer) containing (in mM) 3.6 KCl, 140 NaCl, 2 NaHCO3, 0.5 NaH2PO4, 0.5 MgSO4, 1.5 CaCl2, 10 Hepes, 5 glucose, pH7.4.
Changes in cellular distribution of a transfected probe can be imaged and quantified in an automated fashion. For this purpose cells are cultured to near 80% to 90% confluence in coverglass chambers or plastic 96-well plates, given the relevant treatment and allowed to respond. At the end of the response period, cells are fixed in 4% formaldehyde buffer (Lillies fixative buffer, pH7.0: Bie and Berntsen A/S, Denmark) for 30 minutes to 2 hours, then washed in phosphate buffered saline (PBS, Life Technologies, Denmark). Nuclear DNA is stained with 1 μM Hoechst 33258 (Molecular Probes, Eugene, Oreg., USA) in PBS for 10 minutes at 25° C., then washed twice in PBS. Automated images are collected on a Nikon Diaphot 300 (Nikon, Japan) using a Nikon Plan Fluor 20X/0.5NA objective lens. The basic microscope is fitted with a motorised specimen stage and motorised focus control (Prior Scientific, Fulbourn, Cambridge UK), excitation filter wheel (Sutter Instruments, Novato Calif. USA) and Photometrics PXL series camera with a KAF1400 CCD chip (Photometrics, Tucson, Ariz. USA), each of these items being under the control of an Macintosh 7200/90 computer (Apple Computer, Cupertino, Calif. USA). Automation of stage positioning, focus, excitation filter selection, and image acquisition is performed using macros written in-house, running under IPLab Spectrum for Macintosh (Scanalytics, Fairfax, Va. USA). Fluorescence illumination comes from a 100 W HBO lamp. Images are collected in pairs, the first using a 340/10 nm excitation filter, the second with a 475RDF40 excitation filter (Chroma, Brattleboro, Vt.). Both images are collected via the same dichroic and emission filters, which are optimised for EGFP applications (XF100 filter set, Omega Optical, Brattleboro, Vt.). While the choice of filters for imaging the nuclear stain (Hoechst 33258) is not well matched to that dye's spectral properties, resulting in lower image intensity, it greatly improves the throughput of the procedure by allowing both images to be collected using the same dichroic and emission filter. This eliminates any image registration problems and focus shifts which would result from using two different filter sets, which would require more steps in the acquisition procedure and more extensive image processing to overcome.

PDE4A probes = assay: Redistribution of the PDE4A probes (summary); format: cell-based; conditions: for redistribution of the PDE4A probes: compound alone
HSPDE4A4-EGFP [5] = target: T2, HSPDE4A4-EGFP; assay: Dispersal of preformed Rolipram-induced spots, HSPDE4A4-EGFP CHO cells; format: cell-based; conditions: for Removal of Rolipram-induced PDE4A4-spots: yes/no
Protocol: For the microscopic assessment of spot dispersal, stably transfected (non-clonal) cells transfected with the HSPDE4A4-EGFP probe are allowed to adhere to chambered coverglasses in HAM's F12 medium containing 10% FBS. […] Chambered coverglasses are then transferred to a Zeiss 135 inverted microscope for time lapse imaging as described in Example 2, above. At a given point after starting an experiment, a mixture of IBMX and forskolin is added to give final concentrations of 1 mM and 50 μM, respectively. Images are captured at regular intervals to form a time lapse sequence of the response, also as described in Example 2.
The plate is then run in the FLIPR system at 37° C., with addition of IBMX and forskolin to all wells at final concentrations of 500 μM and 50 μM respectively after the first minute. The experiment is continued for a further 45 minutes, readings being taken at intervals of 1 minute.
Non-clonal CHO cells stably transfected with the HSPDE4A4-EGFP probe are allowed to adhere to chambered coverglasses in HAM's F12 medium containing 10% FBS and to grow for 24 hours.
Clonal CHO cells stably transfected with the HSPDE4A4-EGFP probe are allowed to adhere to chambered coverglasses in HAM's F12 medium containing 10% FBS and to grow for 5 days without change of medium, which by this time is serum-depleted.
Individual wells are then treated with either 50 μM forskolin plus 500 μM IBMX or 200 nM PMA plus 2 μM ionomycin.

[6] = human, in vivo; cited from earlier work
[7] = tested on: high affinity Rolipram binding site (HARBS); conditions: Data from Souness and Rao, 1997; cited from earlier work
[8] = target: T3, high affinity Rolipram binding site (HARBS); conditions: read-out: Displacement of [3H] Rolipram (i: μM); Data from Souness and Rao, 1997; cited from earlier work
T3 construct: Displacement of [3H]; Rolipram (i: μM); other: Data from Souness and Rao, 1997

[9] = tested on: cAMP-dependent protein kinases (PKA); conditions: cited from earlier work
PDE4 [10] = tested on: T4, PDE4; conditions: Saldou et al., 1998; read-out: IC50 against PDE4; cited from earlier work
T4 construct: other: Saldou et al., 1998; Such an enzyme preparation may be obtained from cells transfected with and expressing the PDE4 enzyme chosen

HSPDE4A4-EGFP [11] = target: T2, HSPDE4A4-EGFP; assay: Competitive spot assay: inhibition of Rolipram- or RS25344-induced spot formation, HSPDE4A4-EGFP CHO cells; format: cell-based
Protocol: (§2) The cells are then fixed with 4% formaldehyde buffer (pH7) for 1 hour, washed with PBS and stained with 1 μM Hoechst 33258 in PBS for 10 minutes at 25° C., then washed twice in PBS. Automated images are collected and analysed for the number of spots per cell as described in Example 2.
as §2

PDE3 [12] = assay: PDE3 inhibition (literature values, PDE3/PDE4 specificity); format: biochemical; conditions: measure of specificity
Description: These compounds are termed specific to PDE4, since they inhibit other PDEs either weakly or not at all. The inverse ratio between IC50 of a compound to PDE4s versus its inhibition of other cAMP-degrading PDEs, such as PDE3s is often used as a measure of specificity.

PDE3 [13] = conditions: cited from earlier work

| Compound | Removal of PDE4A1 spots (HSPDE4A1-EGFP [1]) | IC50 (PDE4 [2]) [µM] | pIC50 (PDE4 [2]) | Inhibition of PDE4 catalytic activity (PDE4 [2]) | Reversal of Rolipram-induced removal of PDE4A1 spots (HSPDE4A1-EGFP [3]) | Formation of PDE4A4 spots (HSPDE4A4-EGFP [4]) | redistribution of the PDE4A probes (PDE4A probes) | Removal of Rolipram-induced PDE4A4-spots (HSPDE4A4-EGFP [5]) | Clinical effect [6] | Emesis [6] | PDE4/HARBS, ratio (IC50 PDE4)/(Ki for HARBS) [7] | Ki [8] [µM] | dispersal of PDE4A1 spots (in words) (HSPDE4A1-EGFP [1]) | formation of spots, compound alone (in words) (HSPDE4A4-EGFP [4]) | further results |
| --- | --- | --- | --- | --- | --- | --- | --- | --- | --- | --- | --- | --- | --- | --- | --- |
| CCCCn1c(=O)c2c(ncn2CC(C)=O)n(CCCC)c1=O [Denbufylline] | yes | 0.2 | 6.00 | yes | no | yes | indistinguishable from those induced by Rolipram treatment | no | anti- | yes | 49 | 0.0041 |  |  | cells with spots (HSPDE4A4-EGFP [4]): 40%; cells with spots (HSPDE4A4-EGFP [4]; listed as denbufylline): approximately 40% |
| O=S(=O)(NCCNC/C=C/c1ccc(Br)cc1)c1cccc2cnccc12 [H-89] |  |  |  |  |  |  |  |  |  |  |  |  |  |  | pIC50 [9]: ~7.30; effect on the dispersal of spots induced by IBMX plus forskolin (HSPDE4A4-EGFP [5]; FLIPR, 2 micromolar H-89 pre-treatment 20 minutes): significant effect on the dispersal of spots |
| CC(C)Cn1c(=O)n(C)c(=O)c2[nH]cnc21 [IBMX, 3-Isobutyl-1-Methylxanthine] |  | 14 |  |  |  |  |  |  |  |  | 17 | 0.84 |  |  | concentration after which an effect on PDE4A1 spot numbers starts (HSPDE4A1-EGFP [1]): > 100 µM |
| COc1ccc(C(=O)Nc2c(Cl)cncc2Cl)cc1OC1CCCC1 [RP73401] | no | 0.0012 |  | yes | yes | no | induces no redistribution | yes | anti- | no |  | 0.0004 | does not disperse spots; also recorded: no significant spot dispersal | produces no spots | pIC50 (PDE4 [10]): 9.52; prevention of the redistribution caused by Rolipram (PDE4A probes; in presence of Rolipram): prevent the redistribution; cells with spots (HSPDE4A4-EGFP [11]; 2 μM Rolipram plus 0.001 μM RP73401, 7.5 hours): less than 5%; spot formation (in words) (HSPDE4A4-EGFP [11]; 2 μM Rolipram plus 0.003 μM RP73401, 7.5 hours): unable to elicit the production of any spots; also recorded: no spots formed in any of the cells; time for dispersal of spots (HSPDE4A4-EGFP [5]; spots formed by 2 μM Rolipram over 16 hours, 1 μM RP73401): ≤ 10 min |
| COc1cc2c(cc1OC)-c1cc(=Nc3c(C)cc(C)cc3C)n(C)c(=O)n1CC2 [Trequinsin, 9,10-dimethoxy-2-mesitylimino-3-methyl-3,4,6,7-tetrahydro-2H-pyrimido[6,1-a]isoquinolin-4-one] |  | 0.4 | 6.00 |  |  |  | no redistribution |  |  |  | 023 | 1.7 | no significant spot dispersal | Neither compound causes formation of spots | (IC50 PDE3)/(IC50 PDE4) (PDE3 [12]): 0.00041 |
| CN(C(=O)CCCOc1ccc2[nH]c(=O)ccc2c1)C1CCCCC1 [cilostamide] |  |  |  |  |  |  | no redistribution |  |  |  |  |  |  | do not produce spots | pIC50 (PDE3 [13]): 7.15; effect on spot formation by 2 μM Rolipram (in words) (HSPDE4A4-EGFP [11]; 500 μM theophylline, 100 μM caffeine, 10 μM milrinone, 0.5 μM cilostamide, 100 μM zaprinast): form the same number and type of bright spots |
